≈ marks a conversion by molar mass, not a printed value.
Assays:
[1] = Toxicity in brine shrimp; format: organism-based; conditions: artemia, in vivo
A549 = experiment: Cytotoxicity against human A549 cells; format: functional; conditions: for EC50: Homo sapiens, A549, read-out: ED50 (the source's name)
MCF7 = experiment: Cytotoxicity against human MCF7 cells; format: functional; conditions: for EC50: Homo sapiens, MCF7, read-out: ED50 (the source's name)
HT-29 = experiment: Cytotoxicity against human HT-29 cells; format: functional; conditions: for EC50: Homo sapiens, HT-29, read-out: ED50 (the source's name)
PC-3 = experiment: Cytotoxicity against human PC-3 cells; format: functional; conditions: for EC50: Homo sapiens, PC-3, read-out: ED50 (the source's name)
A498 = experiment: Cytotoxicity against human A-498 cells; format: functional; conditions: for EC50: Homo sapiens, A498, read-out: ED50 (the source's name)
MIA PaCa-2 = experiment: Cytotoxicity against human MIA PaCa2 cells; format: functional; conditions: for EC50: Homo sapiens, MIA PaCa-2, read-out: ED50 (the source's name)

What does the source list for CCCCC[C@H](O)[C@H](O)CCC[C@H](O)[C@H]1CC[C@H]([C@H]2CC[C@H]([C@H](O)CCCCCCCCCCCCC3=C[C@H](C)OC3=O)O2)O1 (stereo in doubt; 91) [PURPUREDIOLIN]?
LC50 [1]: 0.43 µg/mL (≈ 0.673 µM); ED50 (A549): 1.6 µg/mL (≈ 2.5 µM); ED50 (MCF7): 2.5 ×10⁻⁴ ug/ml; EC50 (HT-29): 0.0046 µg/mL (≈ 0.0072 µM); ED50 (PC-3): 1.1 µg/mL (≈ 1.72 µM); ED50 (A498): 1.5 µg/mL (≈ 2.35 µM); ED50 (MIA PaCa-2): 3 µg/mL (≈ 4.7 µM)

Which LC50 [1] does the source give for CCCCCCCCCCCC[C@@H](O)[C@H]1CC[C@H]([C@H](O)CCCCC[C@@H](O)CCCCCC[C@@H]2CC(CC(C)=O)C(=O)O2)O1 (mixture of isomers) here?
Its LC50 is 2.7 µg/mL.

What about the EC50 (A549) of the same compound?
The EC50 was 1.9 µg/mL.

And the EC50 (MCF7)?
The EC50 was 1.7 µg/mL.

What about the EC50 (HT-29) of the same compound?
Its EC50 is 1.4 µg/mL.

And the EC50 (PC-3)?
Its EC50 is 2.2 µg/mL.

What about the EC50 (A498) of the same compound?
Its EC50 is 1.5 µg/mL.

What about the EC50 (MIA PaCa-2) of the same compound?
Its EC50 is 0.0045 µg/mL.

With CCCCCCCCCCCC[C@@H](O)[C@H]1CC[C@H]([C@H](O)CCC[C@@H](O)[C@@H](O)CCCCC[C@@H](O)CC2=C[C@H](C)OC2=O)O1 [ANNOMURICIN E] as the compound, how does the LC50 [1] read?
Its LC50 is 18.4 µg/mL (≈ 30 µM).

What about the EC50 (A549) of the same compound?
The EC50 was 0.11 µg/mL (≈ 0.179 µM).

And the EC50 (MCF7)?
Its EC50 is 0.15 µg/mL (≈ 0.245 µM).

And the EC50 (HT-29)?
The EC50 was 0.67 µg/mL (≈ 1.09 µM).

What about the EC50 (PC-3) of the same compound?
Its EC50 is 0.15 µg/mL (≈ 0.245 µM).

And the EC50 (A498)?
Its EC50 is 1.4 µg/mL (≈ 2.28 µM).

And the EC50 (MIA PaCa-2)?
Its EC50 is 0.24 µg/mL (≈ 0.392 µM).

What does the source list for CCCCCCCCCC[C@H](O)[C@H](O)CCCC[C@H]1CC[C@H]([C@H]2CC[C@H]([C@H](O)CCCCC[C@@H](O)CC3=C[C@H](C)OC3=O)O2)O1 [GLABRACIN A]?
LC50 [1]: 0.13 µg/mL (≈ 0.203 µM); ED50 (A549): 2.8 ×10⁻⁶ ug/ml; ED50 (MCF7): 4.2 ×10⁻⁶ ug/ml; ED50 (HT-29): 5.7 ×10⁻⁶ ug/ml; EC50 (PC-3): 1.1 µg/mL (≈ 1.72 µM); EC50 (A498): 0.001 µg/mL (≈ 0.00157 µM); EC50 (MIA PaCa-2): 1.8 µg/mL (≈ 2.82 µM)

What does the source list for CCCCCCCCCC[C@@H](O)[C@H]1CC[C@H]([C@H]2CC[C@H]([C@H](O)CCCCC[C@@H](O)CCCCC3CC(CC(C)=O)C(=O)O3)O2)O1 (some centres not stated)?
LC50 [1]: 0.35 µg/mL (≈ 0.548 µM); EC50 (A549): 0.077 µg/mL (≈ 0.121 µM); EC50 (MCF7): 0.0012 µg/mL (≈ 0.00188 µM); EC50 (HT-29): 1.4 µg/mL (≈ 2.19 µM); EC50 (PC-3): 0.16 µg/mL (≈ 0.25 µM); EC50 (A498): 0.036 µg/mL (≈ 0.0563 µM); ED50 (MIA PaCa-2): 1.7 ×10⁻⁴ ug/ml

What does the source list for CCCCCCCCCCCCCC[C@@H](O)[C@H]1CC[C@H]([C@H](O)CCCC[C@H](O)CCCCC[C@@H]2CC(CC(C)=O)C(=O)O2)O1 (mixture of isomers)?
LC50 [1]: 0.04 µg/mL; EC50 (A549): 0.014 µg/mL; ED50 (MCF7): 7.6 ×10⁻⁴ ug/ml; ED50 (HT-29): 7.4 ×10⁻⁴ ug/ml; EC50 (PC-3): 0.057 µg/mL; EC50 (A498): 0.12 µg/mL; EC50 (MIA PaCa-2): 0.074 µg/mL

What does the source list for CCCCCCCCCCCCCC[C@H](O)CCCCCCC[C@H](O)CCCCC[C@@H](O)CC1=C[C@H](C)OC1=O [LONGANIN]?
LC50 [1]: 12 µg/mL (≈ 21.2 µM); EC50 (A549): 0.011 µg/mL (≈ 0.0194 µM); EC50 (MCF7): 3.4 µg/mL (≈ 6 µM); EC50 (HT-29): 0.61 µg/mL (≈ 1.08 µM); EC50 (PC-3): 0.4 µg/mL (≈ 0.706 µM); EC50 (A498): 0.039 µg/mL (≈ 0.0688 µM); EC50 (MIA PaCa-2): 0.011 µg/mL (≈ 0.0194 µM)

Which results are given for CCCCCCCCCC[C@H](O)[C@H]1CC[C@H]([C@H](O)CC[C@H](O)[C@@H]2CC[C@@H](CCCCC[C@@H](O)CC3=C[C@H](C)OC3=O)O2)O1 [TRILOBALICIN]?
LC50 [1]: 5.8 µg/mL (≈ 9.49 µM); ED50 (A549): 5.8 ×10⁻⁸ ug/ml; ED50 (MCF7): 1.6 ×10⁻⁷ ug/ml; EC50 (HT-29): 2.3 µg/mL (≈ 3.77 µM); EC50 (PC-3): 0.98 µg/mL (≈ 1.6 µM); EC50 (A498): 0.006 µg/mL (≈ 0.00982 µM); EC50 (MIA PaCa-2): 0.28 µg/mL (≈ 0.458 µM)

For CC[C@H](O)[C@H](O)CCCCCC[C@H](O)[C@H]1CC[C@H]([C@H]2CC[C@H]([C@H](O)CCCCCCCCCCCCC3=C[C@H](C)OC3=O)O2)O1 [BULLATETROCIN], which LC50 [1] is on record?
The LC50 was 0.31 µg/mL (≈ 0.485 µM).

And the EC50 (A549)?
The EC50 was 0.35 µg/mL (≈ 0.548 µM).

And the EC50 (MCF7)?
Its EC50 is 0.5 µg/mL (≈ 0.783 µM).

And the EC50 (HT-29)?
The EC50 was 0.33 µg/mL (≈ 0.516 µM).

What about the EC50 (PC-3) of the same compound?
The EC50 was greater than 1 µg/mL.

And the EC50 (A498)?
The EC50 was greater than 1 µg/mL.

And the EC50 (MIA PaCa-2)?
Its EC50 is greater than 1 µg/mL.

For CCCCCCCCCCCC[C@H]1O[C@@H]([C@H](O)CCCC[C@H](O)CCCCC[C@@H](O)CC2=C[C@H](C)OC2=O)CC[C@H]1O [PYRANICIN], which LC50 [1] is on record?
Its LC50 is 0.3 µg/mL (≈ 0.503 µM).

What about the EC50 (A549) of the same compound?
Its EC50 is 0.28 µg/mL (≈ 0.469 µM).

What about the EC50 (MCF7) of the same compound?
Its EC50 is 0.39 µg/mL (≈ 0.653 µM).

What about the EC50 (HT-29) of the same compound?
The EC50 was 1.2 µg/mL (≈ 2.01 µM).

And the EC50 (PC-3)?
Its EC50 is 0.41 µg/mL (≈ 0.687 µM).

And the EC50 (A498)?
The EC50 was 0.18 µg/mL (≈ 0.302 µM).

What about the EC50 (MIA PaCa-2) of the same compound?
The EC50 was 0.0013 µg/mL (≈ 0.00218 µM).

Which LC50 [1] does the source give for CCCCCCCCCC[C@H](O)[C@@H](O)CCCC[C@H]1CC[C@H]([C@H]2CC[C@H]([C@H](O)CCCCC[C@@H](O)CC3=C[C@H](C)OC3=O)O2)O1 (stereo in doubt; 21) [GLACIN B] here?
The LC50 was 0.27 µg/mL (≈ 0.423 µM).

And the ED50 (A549)?
Its ED50 is 1.3 µg/mL (≈ 2.03 µM).

What about the ED50 (MCF7) of the same compound?
The ED50 was 5.2 ×10⁻² ug/ml.

And the ED50 (HT-29)?
The ED50 was 8.7 ×10⁻² ug/ml.

What about the ED50 (PC-3) of the same compound?
Its ED50 is 5.6 ×10⁻² ug/ml.

What about the EC50 (A498) of the same compound?
The EC50 was 2.6 µg/mL (≈ 4.07 µM).

What about the ED50 (MIA PaCa-2) of the same compound?
The ED50 was 1.5 ×10⁻² ug/ml.

Which EC50 (A549) does the source give for CCCCCCCCCCCC[C@H](O)[C@H]1CC[C@H]([C@H](O)CCCCCC(=O)CCCC[C@@H](O)CC2=C[C@H](C)OC2=O)O1 [MOSIN B] here?
Its EC50 is 0.94 µg/mL (≈ 1.58 µM).

And the EC50 (MCF7)?
The EC50 was greater than 1 µg/mL.

And the EC50 (HT-29)?
The EC50 was greater than 1 µg/mL.

And the EC50 (PC-3)?
The EC50 was greater than 1 µg/mL.

And the EC50 (A498)?
The EC50 was greater than 1 µg/mL.

And the ED50 (MIA PaCa-2)?
Its ED50 is 1.2 ×10⁻⁴ ug/ml.

For CCCCCCCCCC[C@@H](O)[C@H]1CC[C@H]([C@H](O)CCCC[C@H](O)CCCCCCC[C@@H](O)CC2=C[C@H](C)OC2=O)O1 [GLACIN A], which LC50 [1] is on record?
Its LC50 is 0.11 µg/mL (≈ 0.184 µM).

And the EC50 (A549)?
Its EC50 is 1.5 µg/mL (≈ 2.51 µM).

And the EC50 (MCF7)?
Its EC50 is 0.0044 µg/mL (≈ 0.00737 µM).

What about the EC50 (HT-29) of the same compound?
The EC50 was 2.3 µg/mL (≈ 3.85 µM).

And the EC50 (PC-3)?
The EC50 was 0.0098 µg/mL (≈ 0.0164 µM).

What about the EC50 (A498) of the same compound?
The EC50 was 1.3 µg/mL (≈ 2.18 µM).

And the EC50 (MIA PaCa-2)?
The EC50 was 0.0086 µg/mL (≈ 0.0144 µM).

For CCCCCCCCCC[C@@H](O)[C@H]1CC[C@H]([C@H](O)CC[C@H](O)[C@@H]2CC[C@@H](CCCCC[C@@H]3CC(CC(C)=O)C(=O)O3)O2)O1 (some centres not stated), which LC50 [1] is on record?
The LC50 was 3.3 µg/mL (≈ 5.4 µM).

What about the EC50 (A549) of the same compound?
The EC50 was 0.21 µg/mL (≈ 0.344 µM).

What about the EC50 (MCF7) of the same compound?
The EC50 was greater than 1 µg/mL.

What about the EC50 (HT-29) of the same compound?
Its EC50 is greater than 1 µg/mL.

And the EC50 (PC-3)?
The EC50 was 0.0011 µg/mL (≈ 0.0018 µM).

And the EC50 (A498)?
Its EC50 is 0.21 µg/mL (≈ 0.344 µM).

And the EC50 (MIA PaCa-2)?
The EC50 was greater than 1 µg/mL.

Source: ChEMBL document CHEMBL1141818, “Annonaceous acetogenins: recent progress” (J Nat Prod, 1999)
